Patent US8906416B2, “Xanthenedione derivatives for the treatment of pigmentation and skin ageing disorders” (Pierre Fabre Dermo-Cosmetique, priority 2010, dated 2014)

What was measured:
[1] = reference products of the interpretation scale; cited from earlier work
B16-F10 cells = assay: Melanin assay test in B16-F10 cells; format: cell-based, murine; conditions: for IC50: Mus musculus, B16-F10, 0.1 μM α-MSH stimulated, 72 hours treatment, read-out: Results activity B16-F10 IC50 (50% melanin synthesis inhibition); for Results activity B16-F10, percentage of activity on melanin synthesis: negative value indicates an inhibition
Experimental: This involves a test of measuring the synthesis of melanin by colorimetric assay on a murine melanoma cell line: the B16-F10 line. This test enables the depigmenting power of active ingredients to be evaluated.
The B16-F10 cells are cultured in 96-well plates in DMEM medium, supplemented with FCS (foetal calf serum), and incubated 24 hours at 37° C., 5% CO2. The cells are then stimulated with 0.1 μM α-MSH (to stimulate the synthesis of melanin, the stimulation observed is around 150%) and treated 72 hours with the active ingredients to be tested. Each concentration of active ingredient is tested at least in triplicate. The total melanin followed by the intracellular melanin dissolved in the lysis buffer are then assayed by absorbance reading at 405 nm. The total proteins are assayed in the lysate and the results are expressed in mg melanin/mg proteins. The percentage of activity is calculated as follows:
[formula] A negative value indicates an inhibition, whereas a positive value indicates an induction of the synthesis of melanin. General Experimental Conditions: • Equipment: • CO2 cell incubator (Heraeus), Oven, Centrifuge (Heraeus), Laminar air flow fume hood, 96-well clear bottomed plates—Falcon, sterile cones—Treff Lab, Polylabo, Mithras LB940 (Berthold Technologies)-154/MIPA/003 Biological Equipment: • B16-F10 cell line between P10 and P20 (murine melanocytes) (ATCC, CRL-6475) • Reagents • DMEM without phenol red (GIBCOBRL, 31053-028), 200 mM Glutamax-I Supplement (GIBCOBRL, 35050-038), D-PBS (GIBCOBRL, 14190-094), Foetal calf serum (Invitrogen, 10270-098), Trypsine-EDTA (GIBCOBRL, 25300-054), NaOH (Sigma, S8045-500G), DMSO (Sigma, 471267-1L), Nle, Phe—Melanocyte Stimulating Hormone (Sigma, M-8764), Melanin (Sigma, M-0418), BCA-COPPER (SIGMA, B9643 AND C2284), BSA (SIGMA, P0914) B) Test for the Study of the Antioxidant Capacity by Chemiluminescence (Photochem Analytik Jena) Principle: […]

[2] = Antioxidant capacity by chemiluminescence (Photochem Analytik Jena); format: biochemical; conditions: superoxide anion trapping
Experimental: This test is used to determine the antioxidant capacity of molecules. It is a method that generates free radicals by a photochemical signal. The intensity of the oxidation is 1000 times greater than those obtained under normal conditions.
The detection is performed by chemiluminescence. It enables the evaluation of hydrosoluble and liposoluble antioxidant molecules or extracts.
The results are expressed respectively in equivalent quantity of vitamin C or Trolox (6-hydroxy-2,5,7,8-tetramethylchroman-2-carboxylic acid). The sensitivity is of the order of the nanomole.
The antioxidant activity studied in this test represents the capacity to specifically trap the superoxide anions by chemiluminescence.
The quantified results are expressed in equivalent Trolox (standard), i.e. in “μg of product for 1 μg of Trolox”. This signifies that a quantity x of sample is required to obtain an activity equivalent to the activity detected for 1 μg of standard. It is an anti-oxidant power relative to a reference, which can be determined independently of the tested concentration.
The superoxide radical: O2^o^− is generated by a photochemical reaction: L+hv(UV)+O2→L*O2→L^o^++O2^o^− • L*: luminol in the excited state L^o+: luminol radical Detection of the Signal:
Part of the superoxide anions is quenched by anti-oxidants. The remaining free radicals are quantified by chemiluminescence. L^o^++O2^o^−→N2+[…]→AP^2−+hv(luminescence) AP*^2−: aminophthalate in the excited state

IC50 (B16-F10 cells) [µM]	SMILES	μg of sample for 1 μg of Trolox [2]	also measured
–	O=C(O)CCCC[C@@H]1CCSS1 (racemic) [Lipoic acid]	–	Activity (scale for interpreting the results) [1]: Nil; μg sample for 1 μg of Trolox (scale for interpreting the results) [1]: Negative
–	Cc1cc(C(C)(C)C)c(O)c(C(C)(C)C)c1 [BHT]	–	Activity (scale for interpreting the results) [1]: Good; μg sample for 1 μg of Trolox (scale for interpreting the results) [1]: 3.01 to 50 μg sample for 1 μg of Trolox
–	N[C@@H](CS)C(=O)O [Cysteine]	–	Activity (scale for interpreting the results) [1]: Medium; μg sample for 1 μg of Trolox (scale for interpreting the results) [1]: 50.1 to 1000 μg sample for 1 μg of Trolox
50	COc1cc(C2C3=C(CC(C)(C)CC3=O)OC3=C2C(=O)CC(C)(C)C3)ccc1O [Example 1, 9-(4-hydroxy-3-methoxyphenyl)-3,3,6,6-tetramethyl-3,4,5,6,7,9-hexahydro-1H-xanthene-1,8(2H)-dione]	2.1 μg of sample for 1 μg of Trolox	–
20	CC1(C)CC(=O)C2=C(C1)OC1=C(C(=O)CC(C)(C)C1)C2c1ccc(O)c(O)c1 [Example 2, 9-(3,4-dihydroxyphenyl)-3,3,6,6-tetramethyl-3,4,5,6,7,9-hexahydro-1H-xanthene-1,8(2H)-dione]	0.03 μg of sample for 1 μg of Trolox	–
45	COc1cc(C2C3=C(CC(C)(C)CC3=O)OC3=C2C(=O)CC(C)(C)C3)cc(OC)c1O [Example 3, 9-(4-hydroxy-3,5-dimethoxyphenyl)-3,3,6,6-tetramethyl-3,4,5,6,7,9-hexahydro-1H-xanthene-1,8(2H)-dione]	0.72 μg of sample for 1 μg of Trolox	–
7	O=C1CC(c2ccccc2)CC2=C1C(c1ccc(O)c(O)c1)C1=C(CC(c3ccccc3)CC1=O)O2 (centres unmarked) [Example 4, 9-(3,4-dihydroxyphenyl)-3,6-diphenyl-3,4,5,6,7,9-hexahydro-1H-xanthene-1,8(2H)-dione]	0.001 μg of sample for 1 μg of Trolox	–
2	CC1(C)CC(=O)C2=C(C1)OC1=C(C(=O)CC(C)(C)C1)C2c1cc(C(C)(C)C)c(O)c(C(C)(C)C)c1 [Example 5, 9-(3,5-di-tert-butyl-4-hydroxyphenyl)-3,3,6,6-tetramethyl-3,4,5,6,7,9-hexahydro-1H-xanthene-1,8(2H)-dione]	50 μg of sample for 1 μg of Trolox	–
6	COc1cc(C2C3=C(CC(c4ccccc4)CC3=O)OC3=C2C(=O)CC(c2ccccc2)C3)ccc1O (centres unmarked) [Example 6, 9-(4-hydroxy-3-methoxyphenyl)-3,6-diphenyl-3,4,5,6,7,9-hexahydro-1H-xanthene-1,8(2H)-dione]	2.46 μg of sample for 1 μg of Trolox	–
–	CCCCC/C=C\C/C=C\CCCCCCCC(=O)Oc1ccc(C2C3=C(CC(C)(C)CC3=O)OC3=C2C(=O)CC(C)(C)C3)cc1OC [Example 7, (9Z,12Z)-2-methoxy-4-(3,3,6,6-tetramethyl-1,8-dioxo-2,3,4,5,6,7,8,9-octahydro-1H-xanthen-9-yl)phenyl octadeca-9,12-dienoate]	19.7 μg of sample for 1 μg of Trolox	–
37	CC1(C)CC(=O)C2=C(C1)OC1=C(C(=O)CC(C)(C)C1)C2c1ccc(O)cc1 [Example 9, 9-(4-hydroxyphenyl)-3,3,6,6-tetramethyl-3,4,5,6,7,9-hexahydro-1H-xanthene-1,8(2H)-dione]	7.39 μg of sample for 1 μg of Trolox	–
–	Cc1cc(C2C3=C(CC(C)(C)CC3=O)OC3=C2C(=O)CC(C)(C)C3)cc(C)c1O [Example 10, 9-(4-hydroxy-3,5-dimethylphenyl)-3,3,6,6-tetramethyl-3,4,5,6,7,9-hexahydro-1H-xanthene-1,8(2H)-dione]	4.10 μg of sample for 1 μg of Trolox	–
–	COc1cc(C2C3=C(CCCC3=O)OC3=C2C(=O)CCC3)ccc1O [Example 11, 9-(4-hydroxy-3-methoxyphenyl)-3,4,5,6,7,9-hexahydro-1H-xanthene-1,8(2H)-dione]	1.07 μg of sample for 1 μg of Trolox	–
16	COc1cc(C2C3=C(CC(C(C)C)CC3=O)OC3=C2C(=O)CC(C(C)C)C3)ccc1O (centres unmarked) [Example 12, 9-(4-hydroxy-3-methoxyphenyl)-3,6-diisopropyl-3,4,5,6,7,9-hexahydro-1H-xanthene-1,8(2H)-dione]	1.64 μg of sample for 1 μg of Trolox	–
–	COc1cc(C2C3=C(CC(c4ccc(OC)c(OC)c4)CC3=O)OC3=C2C(=O)CC(c2ccc(OC)c(OC)c2)C3)ccc1O (centres unmarked) [Example 14, 3,6-bis(3,4-dimethoxyphenyl)-9-(4-hydroxy-3-methoxyphenyl)-3,4,5,6,7,9-hexahydro-1H-xanthene-1,8(2H)-dione]	2.27 μg of sample for 1 μg of Trolox	–
19	CCOc1cc(C2C3=C(CC(C)(C)CC3=O)OC3=C2C(=O)CC(C)(C)C3)ccc1O [Example 15, 9-(3-ethoxy-4-hydroxyphenyl)-3,3,6,6-tetramethyl-3,4,5,6,7,9-hexahydro-1H-xanthene-1,8(2H)-dione]	1.79 μg of sample for 1 μg of Trolox	–
–	COc1cc(C2C3=C(CC(C)(C)CC3=O)OC3=C2C(=O)CC(C)(C)C3)cc(Cl)c1O [Example 16, 9-(3-chloro-4-hydroxy-5-methoxyphenyl)-3,3,6,6-tetramethyl-3,4,5,6,7,9-hexahydro-1H-xanthene-1,8(2H)-dione]	5.20 μg of sample for 1 μg of Trolox	Results activity B16-F10, percentage of activity on melanin synthesis (B16-F10 cells; 20 μM): −31% to 20 μM
–	COc1cc(C2C3=C(CC(C)(C)CC3=O)OC3=C2C(=O)CC(C)(C)C3)cc(Br)c1O [Example 17, 9-(3-bromo-4-hydroxy-5-methoxyphenyl)-3,3,6,6-tetramethyl-3,4,5,6,7,9-hexahydro-1H-xanthene-1,8(2H)-dione]	5.18 μg of sample for 1 μg of Trolox	–
–	COc1cc(C2C3=C(CC(C)(C)CC3=O)OC3=C2C(=O)CC(C)(C)C3)cc(I)c1O [Example 18, 9-(4-hydroxy-3-iodo-5-methoxyphenyl)-3,3,6,6-tetramethyl-3,4,5,6,7,9-hexahydro-1H-xanthene-1,8(2H)-dione]	4.66 μg of sample for 1 μg of Trolox	–
–	COc1cc(C2C3=C(CC(C)(C)CC3=O)OC3=C2C(=O)CC(C)(C)C3)cc(O)c1O [Example 19, 9-(3,4-dihydroxy-5-methoxyphenyl)-3,3,6,6-tetramethyl-3,4,5,6,7,9-hexahydro-1H-xanthene-1,8(2H)-dione]	0.02 μg of sample for 1 μg of Trolox	Results activity B16-F10, percentage of activity on melanin synthesis (B16-F10 cells; 10 μM): −22% to 10 μM
–	CC(=O)Oc1ccc(C2C3=C(CC(c4ccccc4)CC3=O)OC3=C2C(=O)CC(c2ccccc2)C3)cc1OC(C)=O (centres unmarked) [Example 26, 4-(1,8-dioxo-3.6-diphenyl-2,3,4,5,6,7,8,9-octahydro-1H-xanthen-9-yl)-1,2-phenylene diacetate]	–	Results activity B16-F10, percentage of activity on melanin synthesis (B16-F10 cells; 20 μM): −28% to 20 μM
–	CC(=O)Oc1ccc(C2C3=C(CC(C)(C)CC3=O)OC3=C2C(=O)CC(C)(C)C3)cc1OC(C)=O [Example 27, 4-(3,3,6,6-tetramethyl-1,8-dioxo-2,3,4,5,6,7,8,9-octahydro-1H-xanthen-9-yl)-1,2-phenylene diacetate]	0.096 μg of sample for 1 μg of Trolox	–
–	O=C1O[C@H]([C@@H](O)CO)C(O)=C1O [Vitamin C]	–	Activity (scale for interpreting the results) [1]: Very good; μg sample for 1 μg of Trolox (scale for interpreting the results) [1]: 0.1 to 3.0 μg sample for 1 μg of Trolox
